Assays:
hH1R = biological target: T1, hH1R (Homo sapiens, UniProt P35367); test: [3H]pyrilamine binding assay, membranes of CHO cells
T1 construct: expressed in transfected cells

EqBuChE = EqBuChE (Equus caballus, UniProt P81908); test: Butyrylcholinesterase inhibition, modified Ellman's method; format: biochemical, equine; settings: 1 μM (1000 nM) of compound; preliminary data, n = 2
Chain of EqBuChE (P81908 whole entry): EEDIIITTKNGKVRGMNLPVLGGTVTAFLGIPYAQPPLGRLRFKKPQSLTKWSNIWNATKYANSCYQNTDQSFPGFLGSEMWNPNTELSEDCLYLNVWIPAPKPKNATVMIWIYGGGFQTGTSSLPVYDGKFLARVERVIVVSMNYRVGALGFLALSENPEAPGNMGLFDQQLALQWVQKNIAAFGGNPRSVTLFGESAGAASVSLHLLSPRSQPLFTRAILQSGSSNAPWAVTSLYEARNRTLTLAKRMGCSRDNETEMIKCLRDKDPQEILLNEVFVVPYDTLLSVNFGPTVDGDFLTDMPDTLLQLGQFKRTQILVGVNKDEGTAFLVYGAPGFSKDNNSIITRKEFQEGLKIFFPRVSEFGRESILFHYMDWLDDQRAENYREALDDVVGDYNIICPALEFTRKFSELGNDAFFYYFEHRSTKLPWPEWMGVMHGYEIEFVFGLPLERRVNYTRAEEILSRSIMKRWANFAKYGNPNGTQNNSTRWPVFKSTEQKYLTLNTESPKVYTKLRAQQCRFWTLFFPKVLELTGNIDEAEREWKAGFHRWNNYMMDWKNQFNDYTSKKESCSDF

T1 sequence (P35367 whole entry): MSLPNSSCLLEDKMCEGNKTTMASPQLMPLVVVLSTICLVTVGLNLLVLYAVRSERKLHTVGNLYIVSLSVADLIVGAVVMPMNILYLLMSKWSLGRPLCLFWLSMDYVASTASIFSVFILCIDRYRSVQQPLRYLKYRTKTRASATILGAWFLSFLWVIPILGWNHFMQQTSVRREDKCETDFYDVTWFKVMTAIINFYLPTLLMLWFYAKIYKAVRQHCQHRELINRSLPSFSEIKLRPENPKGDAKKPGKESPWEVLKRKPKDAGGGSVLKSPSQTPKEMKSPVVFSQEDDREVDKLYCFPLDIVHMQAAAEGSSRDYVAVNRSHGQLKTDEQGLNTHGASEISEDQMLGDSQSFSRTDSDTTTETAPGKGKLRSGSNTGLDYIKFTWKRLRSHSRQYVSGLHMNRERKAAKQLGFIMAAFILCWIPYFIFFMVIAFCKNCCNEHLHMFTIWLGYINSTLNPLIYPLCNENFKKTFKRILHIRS

COc1ccccc1N1CCN(CCCCNC(=O)c2ccc3cc(OCCCN4CCCCC4)ccc3c2)CC1 [ST-2223, N-(4-(4-(2-methoxyphenyl)piperazin-1-yl)butyl)-6-(3-(piperidin-1-yl)propoxy)-2-naphthamide] gave a Ki (hH1R) of 85.2 nM and an inhibition at 1 µM (EqBuChE) of less than 30%.

Source: paper PMC7920280, “The Multi-Targeting Ligand ST-2223 with Histamine H3 Receptor and Dopamine D2/D3 Receptor Antagonist Properties Mitigates Autism-Like Repetitive Behaviors and Brain Oxidative Stress in Mice” (International Journal of Molecular Sciences, 2021)
